Reference: ChEMBL document CHEMBL4706559, “New indolylarylsulfone non-nucleoside reverse transcriptase inhibitors show low nanomolar inhibition of single and double HIV-1 mutant strains” (Eur J Med Chem, 2020)
pEC50: −log10 of the molar value.

Columns and labels:
[1] = test system: Human immunodeficiency virus 1; assay: Antiviral activity against HIV-1 NL4-3 infected in human MT-4 cells assessed as virus induced cytopathic effect by MTT assay; format: functional, organism-based; details: Human immunodeficiency virus 1, NL4-3, MT4
[2] = test system: Human immunodeficiency virus 1; assay: Antiviral activity against HIV1 harboring RT K103N mutant infected in human MT4 cells assessed as protection against virus-induced cytopathic effect by MTT assay; format: functional, organism-based; details: Human immunodeficiency virus 1, MT4
[3] = test system: Human immunodeficiency virus 1; assay: Antiviral activity against HIV1 harboring RT Y181C mutant infected in human MT4 cells assessed as protection against virus-induced cytopathic effect by MTT assay; format: functional, organism-based; details: Human immunodeficiency virus 1, MT4
[4] = test system: Human immunodeficiency virus 1; assay: Antiviral activity against HIV1 harboring RT Y188L mutant infected in human MT4 cells assessed as protection against virus-induced cytopathic effect by MTT assay; format: functional, organism-based; details: Human immunodeficiency virus 1, MT4
[5] = test system: Human immunodeficiency virus 1; assay: Inhibition of HIV1 p66/p51 reverse transcriptase K103N/Y181C double mutant assessed as apparent Km of substrate at 150 nM using […] as templates in presence of fixed concentration of [3H]dTTP by Michaelis-Menten analysis (reference value: 106+/- 16 nM)
[6] = target: Human immunodeficiency virus type 1 reverse transcriptase (Human immunodeficiency virus 1) (UniProt Q72547); assay: Inhibition of wild type HIV1 p66/p51 reverse transcriptase assessed as apparent Vmax at 225 nM using fixed concentration of poly(rA)/oligo(dT) as templates in presence of 2 to 100 uM of [3H]dTTP by Michaelis-Menten analysis (reference value: 9.7 +/- 12%)
[7] = test system: Human immunodeficiency virus 1; assay: Inhibition of HIV1 p66/p51 reverse transcriptase K103N/Y181C double mutant assessed as apparent Km of substrate at 75 nM using fixed concentration of poly(rA)/oligo(dT) as templates in presence of 2 to 100 uM of [3H]dTTP by Michaelis-Menten analysis (reference value: 9.2 +/- 1.4 uM)
[8] = test system: Human immunodeficiency virus 1; assay: Inhibition of HIV1 p66/p51 reverse transcriptase K103N/Y181C double mutant assessed as apparent Km of substrate at 300 nM using fixed concentration of poly(rA)/oligo(dT) as templates in presence of 2 to 100 uM of [3H]dTTP by Michaelis-Menten analysis (reference value: 9.2 +/- 1.4 uM)
[9] = target: Human immunodeficiency virus type 1 reverse transcriptase (Human immunodeficiency virus 1) (UniProt Q72547); assay: Binding affinity to free form of wild type HIV-1 p66/p51 reverse transcriptase assessed as association constant using poly(rA)/oligo(dT) as templates in presence of [3H]dTTP
[10] = target: Human immunodeficiency virus type 1 reverse transcriptase (Human immunodeficiency virus 1) (UniProt Q72547); assay: Binding affinity to wild type HIV-1 p66/p51 reverse transcriptase/nucleic acid/dTTP ternary complex assessed as dissociation constant using poly(rA)/oligo(dT) as templates in presence of [3H]dTTP
[11] = test system: Human immunodeficiency virus 1; assay: Binding affinity to HIV-1 p66/p51 reverse transcriptase K103N/Y181C double mutant/nucleic acid binary complex assessed as dissociation constant using poly(rA)/oligo(dT) as templates in presence of [3H]dTTP
[12] = test system: Human immunodeficiency virus 1; assay: Binding affinity to HIV-1 p66/p51 reverse transcriptase K103N/Y181C double mutant/nucleic acid/dTTP ternary complex assessed as dissociation constant using poly(rA)/oligo(dT) as templates in presence of [3H]dTTP
[13] = test system: Human immunodeficiency virus 1; assay: Synergistic inhibition of wild type HIV-1 p66/p51 reverse transcriptase assessed as combination index using poly(rA)/oligo(dT) as templates in presence of [3H]dTTP preincubated enzyme with nucleic acid followed by addition of AZTTP and subsequent incubation with compound and dTTP

Cc1cc(C)cc(S(=O)(=O)c2c(C(=O)NCc3ccccc3O)[nH]c3ccc(Cl)cc23)c1
pEC50 [1]: > 9.15 | pEC50 [2]: > 9.15 | pEC50 [3]: > 9.15 | pEC50 [4]: 7.67 | Km [5]: 0.125 µM | Vmax(app) [6]: 0.9% | Km [7]: 5.8 µM | Km [8]: 1.9 µM | K [9]: 13 10^-5/nM/s | K [10]: 4.1 10^-3/s | K [11]: 8 10^-3/s | K [12]: 33 10^-3/s | CI [13]: 0.75
